According to patent US6486185B1, “3-heteroarylidene-2-indolinone protein kinase inhibitors” (Sugen, Inc., priority 1997, dated 2002):

Assays:
EGFR = molecular target: T1, EGFR (Homo sapiens, UniProt P00533); test: EGF receptor ELISA in cells engineered to express human EGF-R; assay type: cell-based; conditions: 50% inhibition of PTK activity over control
T1 construct: expressed in transfected cells; host or cells: NIH 3T3/C7
Method: (§1) The cellular/catalytic assays described herein are performed in an ELISA format. The general procedure is a follows: a compound is introduced to cells expressing the test kinase, either naturally or recombinantly, for some period of time after which, if the test kinase is a receptor, a ligand known to activate the receptor's activity is added. The cells are lysed and the lysate is transferred to the wells of an ELISA plate previously coated with a specific antibody recognizing the substrate of the enzymatic phosphorylation reaction. Non-substrate components of the cell lysate are washed away and the amount of phosphorylation on the substrate is detected with an antibody specifically recognizing phosphotyrosine compared with control cells that were not contacted with a test compound.
EGF Receptor kinase activity in cells genetically engineered to express human EGF-R can be measured as described below:
The following materials and reagents are used
a. EGF Ligand: stock concentration=16.5 μM; EGF 201, TOYOBO, Co., Ltd. Japan.
b. 05-101 (UBI) (a monoclonal antibody recognizing an EGFR extracellular domain).
c. Anti-phosphotyosine antibody (anti-Ptyr) (polyclonal).
d. Detection antibody: Goat anti-rabbit lgG horse radish peroxidase conjugate, TAGO, Inc., Burlingame, Calif.
Keep solution in dark at 4 C until used.
The following protocol is used:
1. Coat ELISA plates (Corning, 96 well, Cat. #25805-96) with 05-101 antibody at 0.5 μg per well in PBS, 150 μL final volume/well, and store overnight at 4° C. Coated plates are good for up to 10 days when stored at 4° C.
2. On day of use, remove coating buffer and replace with blocking buffer (5% Carnation Instant NonFat Dry Milk in PBS). Incubate the plate, shaking, at room temperature (about 23° C. to 25° C.) for 30 minutes. Just prior to use, remove blocking buffer and wash plate 4 times with TBST buffer.
1. NIH 3T3/C7 cell line (Honegger, et al., Cell 51:199-209, 1987) can be use for this assay.
2. Choose dishes having 80-90% confluence for the experiment. Trypsinize cells and stop reaction by adding 10% CS DMEM medium. Suspend cells in DMEM medium (10% CS DMEM medium) and centrifuge once at 1000 rpm at room temperature for 5 minutes.
3. Resuspend cells in seeding medium (DMEM, 0.5% bovine serum), and count the cells using trypan blue. Viability above 90% is acceptable. Seed cells in DMEM medium (0.5% bovine serum) at a density of 10,000 cells per well, 100 μL per well, in a 96 well microtiter plate. Incubate seeded cells in 5% CO2 at 37° C. for about 40 hours.
1. Check seeded cells for contamination using an inverted microscope. Dilute drug stock (10 mg/mL in DMSO) 1:10 in DMEM medium, then transfer 5 μL to a test well for a final drug dilution of 1:200 and a final DMSO concentration of 1%. Control wells receive DMSO alone. Incubate in 5% CO2 at 37° C. for one hour.
2. Prepare EGF ligand: dilute stock EGF in DMEM so that upon transfer of 10 μL dilute EGF (1:12 dilution), 25 nM final concentration is attained.
3. Prepare fresh 10 mL HNTG* sufficient for 100 μL per well wherein HNTG* comprises: HNTG stock (2.0 mL), milli-Q H2O (7.3 mL), EDTA, 100 mM, pH 7.0 (0.5 mL), Na3VO4 0.5 M (0.1 mL) and Na4(P2O7), 0.2 M (0.1 mL).
5. After two hours incubation with drug, add prepared EGF ligand to cells, 10 μL per well, to yield a final concentration of 25 nM. Control wells receive DMEM alone. Incubate, shaking, at room temperature, for 5 minutes.
6. Remove drug, EGF, and DMEM. Wash cells twice with PBS. Transfer HNTG* to cells, 100 μL per well. Place on ice for 5 minutes. Meanwhile, remove blocking buffer from other ELISA plate and wash with TBST as described above.
7. With a pipette tip securely fitted to a micropipettor, scrape cells from plate and homogenize cell material by repeatedly aspirating and dispensing the HNTG* lysis buffer. Transfer lysate to a coated, blocked, and washed ELISA plate. Incubate shaking at room temperature for one hour.
8. Remove lysate and wash 4 times with TBST. […]

IGF-1R = molecular target: T2, IGF-1R (Homo sapiens, UniProt P08069); test: IGF-I receptor ELISA in 3T3/IGF-1R cells; assay type: cell-based; conditions: 50% inhibition of PTK activity over control
T2 construct: expressed in transfected cells; host or cells: NIH3T3 (3T3/IGF-1R)
Method: as §1
The following protocol may be used to measure phosphotyrosine level on IGF-I receptor, which indicates IGF-I receptor tyrosine kinase activity.
The following materials and reagents are used:
a. The cell line used in this assay is 3T3/IGF-1R, a cell line genetically engineered to overexpresses IGF-1 receptor.
b. NIH3T3/IGF-1R is grown in an incubator with 5% CO2 at 37° C. The growth media is DMEM+10% FBS (heat inactivated)+2 mM L-glutamine.
c. Affinity purified anti-IGF-1R antibody 17-69.
e. Blocking Buffer: TBST plus 5% Milk (Carnation Instant Non-Fat Dry Milk).
Stock solution of TBS (10×) is prepared, and Triton X-100 is added to the buffer during dilution.
Stock solution (5×) is prepared and kept at 4° C.
h. EDTA/HCl: 0.5 M pH 7.0 (NaOH) as 100×stock.
i. Na3VO4: 0.5 M as 100×stock and aliquots are kept in −80° C.
k. Insulin-like growth factor-1 from Promega (Cat# G5111).
l. Rabbit polyclonal anti-phosphotyrosine antiserum.
m. Goat anti-rabbit IgG, POD conjugate (detection antibody), Tago (Cat. No. 4520, Lot No. 1802): Tago, Inc., Burlingame, Calif.
n. ABTS (2,2′-azinobis(3-ethylbenzthiazolinesulfonic acid)) solution:
ABTS solution should be kept in dark and 4° C. The solution should be discarded when it turns green.
o. Hydrogen Peroxide: 30% solution is kept in the dark and at 4° C.
All the following steps are conducted at room temperature unless it is specifically indicated. All ELISA plate washings are performed by rinsing the plate with tap water three times, followed by one TBST rinse. Pat plate dry with paper towels.
1. The cells, grown in tissue culture dish (Corning 25020-100) to 80-90% confluence, are harvested with Trypsin-EDTA (0.25%, 0.5 mL/D-100, GIBCO).
2. Resuspend the cells in fresh DMEM+10% FBS+2 mM L-Glutamine, and transfer to 96-well tissue culture plate (Corning, 25806-96) at 20,000 cells/well (100 μL/well). Incubate for 1 day then replace medium to serum-free medium (90/μL) and incubate in 5% CO2 and 37° C. overnight.
B. ELISA Plate Coating and Blocking:
1. Coat the ELISA plate (Corning 25805-96) with Anti-IGF-1R Antibody at 0.5 μg/well in 100 μL PBS at least 2 hours.
2. Remove the coating solution, and replace with 100 μL Blocking Buffer, and shake for 30 minutes. Remove the blocking buffer and wash the plate just before adding lysate.
1. The drugs are tested in serum-free condition.
2. Dilute drug stock (in 100% DMSO) 1:10 with DMEM in 96-well poly-propylene plate, and transfer 10 μL/well of this solution to the cells to achieve final drug dilution 1:100, and final DMSO concentration of 1.0%. Incubate the cells in 5% CO2 at 37° C. for 2 hours.
3. Prepare fresh cell lysis buffer (HNTG*)
4. After drug incubation for two hours, transfer 10 μL/well of 200 nM IGF-1 Ligand in PBS to the cells (Final Conc.=20 nM), and incubate at 5% CO2 at 37° C. for 10 minutes.
5. Remove media and add 100 μL/well HNTG* and shake for 10 minutes. Look at cells under microscope to see if they are adequately lysed.
6. Use a 12-channel pipette to scrape the cells from the plate, and homogenize the lysate.by repeated aspiration and dispensing. Transfer all the lysate to the antibody coated ELISA plate, and shake for 1 hour.
7. […]

T2 sequence (P08069 31-1367, species assumed): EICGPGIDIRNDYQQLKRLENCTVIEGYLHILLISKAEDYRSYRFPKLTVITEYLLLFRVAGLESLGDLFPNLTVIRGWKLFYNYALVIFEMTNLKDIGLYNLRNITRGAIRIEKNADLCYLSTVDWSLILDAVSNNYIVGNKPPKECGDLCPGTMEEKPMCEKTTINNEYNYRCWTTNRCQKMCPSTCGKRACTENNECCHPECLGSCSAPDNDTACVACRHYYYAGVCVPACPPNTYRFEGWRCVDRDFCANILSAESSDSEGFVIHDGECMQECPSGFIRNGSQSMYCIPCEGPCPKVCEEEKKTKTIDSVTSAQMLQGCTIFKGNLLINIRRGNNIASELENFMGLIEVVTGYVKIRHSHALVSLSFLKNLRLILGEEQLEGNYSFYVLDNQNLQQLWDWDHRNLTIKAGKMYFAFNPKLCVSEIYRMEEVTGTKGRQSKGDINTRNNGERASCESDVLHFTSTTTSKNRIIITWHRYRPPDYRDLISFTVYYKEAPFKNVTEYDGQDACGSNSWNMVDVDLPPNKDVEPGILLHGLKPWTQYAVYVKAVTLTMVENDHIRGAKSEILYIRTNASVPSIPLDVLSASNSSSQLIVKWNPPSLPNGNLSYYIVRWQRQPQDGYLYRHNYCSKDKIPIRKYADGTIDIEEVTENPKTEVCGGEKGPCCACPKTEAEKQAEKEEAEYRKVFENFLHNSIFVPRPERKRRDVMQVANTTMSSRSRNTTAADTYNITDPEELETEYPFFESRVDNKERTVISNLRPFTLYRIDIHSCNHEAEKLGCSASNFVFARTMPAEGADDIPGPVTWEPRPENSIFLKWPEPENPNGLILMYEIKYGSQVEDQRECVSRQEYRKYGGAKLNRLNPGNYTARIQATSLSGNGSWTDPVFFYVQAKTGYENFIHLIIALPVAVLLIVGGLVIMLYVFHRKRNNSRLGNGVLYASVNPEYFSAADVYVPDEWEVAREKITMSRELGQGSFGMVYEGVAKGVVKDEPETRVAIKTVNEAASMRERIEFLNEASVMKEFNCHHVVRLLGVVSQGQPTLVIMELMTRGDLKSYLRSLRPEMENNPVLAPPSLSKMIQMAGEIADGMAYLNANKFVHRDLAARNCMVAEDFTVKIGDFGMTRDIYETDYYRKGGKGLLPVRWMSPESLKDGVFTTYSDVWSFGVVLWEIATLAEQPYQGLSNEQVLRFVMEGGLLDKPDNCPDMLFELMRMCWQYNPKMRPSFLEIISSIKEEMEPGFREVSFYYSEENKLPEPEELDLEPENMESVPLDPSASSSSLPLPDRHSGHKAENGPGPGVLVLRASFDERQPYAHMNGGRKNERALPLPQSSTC
T1 sequence (P00533 25-1210): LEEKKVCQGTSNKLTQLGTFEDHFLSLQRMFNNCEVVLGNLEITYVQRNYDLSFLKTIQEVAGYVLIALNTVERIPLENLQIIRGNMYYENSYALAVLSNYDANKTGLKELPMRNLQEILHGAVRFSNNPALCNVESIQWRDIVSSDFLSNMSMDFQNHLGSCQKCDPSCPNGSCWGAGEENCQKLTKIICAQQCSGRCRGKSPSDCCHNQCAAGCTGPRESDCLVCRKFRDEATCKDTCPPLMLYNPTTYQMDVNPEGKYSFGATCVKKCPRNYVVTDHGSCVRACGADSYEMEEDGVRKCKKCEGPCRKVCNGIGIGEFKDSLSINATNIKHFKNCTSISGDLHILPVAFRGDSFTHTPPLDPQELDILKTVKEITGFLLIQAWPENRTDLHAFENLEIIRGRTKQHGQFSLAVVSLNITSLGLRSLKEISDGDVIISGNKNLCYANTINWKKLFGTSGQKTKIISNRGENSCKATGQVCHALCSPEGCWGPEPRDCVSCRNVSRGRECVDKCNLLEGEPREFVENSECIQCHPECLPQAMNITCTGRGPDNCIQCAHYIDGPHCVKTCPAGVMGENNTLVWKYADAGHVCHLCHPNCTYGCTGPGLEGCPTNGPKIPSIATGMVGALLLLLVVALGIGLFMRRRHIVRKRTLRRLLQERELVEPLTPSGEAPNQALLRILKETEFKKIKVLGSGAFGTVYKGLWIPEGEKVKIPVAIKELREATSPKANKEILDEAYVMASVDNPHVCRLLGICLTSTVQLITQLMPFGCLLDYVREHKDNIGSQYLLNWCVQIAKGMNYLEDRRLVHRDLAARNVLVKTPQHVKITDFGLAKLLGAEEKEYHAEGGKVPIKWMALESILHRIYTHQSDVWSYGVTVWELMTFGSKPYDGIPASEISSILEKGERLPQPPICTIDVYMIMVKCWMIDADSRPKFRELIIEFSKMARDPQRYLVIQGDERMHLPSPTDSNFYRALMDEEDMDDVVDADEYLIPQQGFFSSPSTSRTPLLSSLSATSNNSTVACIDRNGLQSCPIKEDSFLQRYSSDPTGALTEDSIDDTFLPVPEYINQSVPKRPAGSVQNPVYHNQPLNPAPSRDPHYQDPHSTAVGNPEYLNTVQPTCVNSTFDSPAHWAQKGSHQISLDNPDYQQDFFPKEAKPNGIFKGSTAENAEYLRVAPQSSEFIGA

| IC50 (EGFR) [µM] | IC50 (IGF-1R) [µM] | Structure (SMILES) |
| --- | --- | --- |
| > 100 | > 100 | CCc1c(C=C2C(=O)Nc3ccccc32)[nH]c(C(=O)O)c1C [3-(2-carboxy-4-ethyl-3-methylpyrrol-5-methylidenyl)-2-indolinone] |
| > 100 | > 100 | CCOC(=O)c1c(C)[nH]c(C=C2C(=O)Nc3ccccc32)c1C [3-(2,4-dimethyl-3-ethoxycarbonylpyrrol-5-methylidenyl)-2-indolinone] |
